Source: publication PMC11751439, “Targeting SRSF1 improves cancer immunotherapy by dually acting on CD8^+T and tumor cells” (Signal Transduction and Targeted Therapy, 2025)
pKd: −log10 of the molar value.

What was measured:
[1] = target: T1, SRSF1 (recombinant SRSF1; serine arginine-rich splicing factor 1) (Homo sapiens, UniProt Q07955); test: SPR; format: binding; conditions: purified SRSF1 variant; unit inferred, M taken from the wild-type value
T1 construct: recombinant purified SRSF1; RRM1 domain targeted in screening

[2] = target: T1, SRSF1 (recombinant SRSF1; serine arginine-rich splicing factor 1); test: SPR (Biacore T100); format: binding

T1 sequence (Q07955 2-248): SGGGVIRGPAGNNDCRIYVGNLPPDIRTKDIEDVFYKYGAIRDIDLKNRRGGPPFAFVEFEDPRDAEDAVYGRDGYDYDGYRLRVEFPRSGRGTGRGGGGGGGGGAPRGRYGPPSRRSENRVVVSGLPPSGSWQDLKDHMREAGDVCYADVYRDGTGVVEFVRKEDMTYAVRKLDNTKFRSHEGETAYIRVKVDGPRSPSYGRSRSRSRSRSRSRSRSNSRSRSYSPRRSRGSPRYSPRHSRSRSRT

pKd [1]: 4.43
pKd [2]: 5.29
Structure (SMILES): O=C(/C=C/c1ccc(O)c(O)c1)c1ccc(O)c(O)c1O [TN2008]
